Test results reported in patent US6998237B1, “GD3 peptide mimics” (Health Research, Inc., priority 2002, dated 2006).
Bridge positions count the residues as written; N and C are the ends. Ends that are not written are not given here.

How the values were obtained:
mAb MG21 = experiment: Inhibition of binding of anti-GD3 mAb MG21 to GD3+ Melur melanoma cells by peptide mimic; conditions: cyclized peptide; FIG. 2a, 2b
Text: (§1) FIGS. 2a, 2b and 2c are representations of inhibition of binding of anti-GD3 monoclonal antibody to GD3+ cells by peptide mimics of the present invention. Data is shown for pMG21-15-1 (FIG. 2a), pMG21-8-4 (FIG. 2b) and pMG22-8-1 (FIG. 2c) for inhibition of binding of mAb MG22 (-∘-); mAb MG21 (-●-) and mAb 763.74 (-Δ-).
(§2) For further characterization, the pVIII gene inserts of positive phage clones identified by reverse ELISA were sequenced. Peptides encoded by these sequences were synthesized and then tested for GD3 specificity. This was done by assessing the peptides' ability to compete with MG21 or MG22 for binding to GD3-bearing melanoma cell line in vitro.
(§3) Cyclized pMG21-15-1, pMG21-8-4 and pMG22-8-1 were tested for inhibiting the binding of the anti-GD2 mAb to Melur melanoma cells.

mAb MG22 = experiment: Inhibition of binding of anti-GD3 mAb MG22 to GD3+ Melur melanoma cells by peptide mimic
Text: as §1
FIG. 3 is a representation of the effect of dithiothrietol (DTT) on inhibition of MG22 binding to GD2/3+Melur cells by […]. […] This inhibitory effect was abolished by the pre-incubation of pMG22-8-1 with 10 mM DTT (—SH), confirming that the inhibitory peptide was in its cyclized form (-S-S-). 763.74, a monoclonal antibody that recognizes another melanoma-associated antigen—the High Molecular Weight-Melanoma Associated Antigen (HMW-MAA), is used here as an irrelevant antibody to show the binding specificity of GD2/3 peptide mimic pMG22-8-1 for mAb MG22; and p763.74 is a HMW-MAA peptide mimic isolated using the mAb 763.74. It is used here as an irrelevant peptide mimic to show the binding specificity of the GD3-specific mAb MG22 for pMG22-8-1.
as §2, §3
The effect of 10 mM DTT on the inhibition of binding of anti-GD3 mAb to GD3+ cells was investigated.

[1] = tested on: GD3 positive (Melur) cells; experiment: Reactivity of sera from immunized mice to GD3 positive (Melur) versus GD3 negative (LG2) cells by ELISA; type: in vivo; conditions: following two immunizations, Melur vs LG2 cells, sera day 24 and 38
Experimental: FIGS. 5a and 5b are representations of the selective reactivity of sera from mice immunized with GD3 peptide mimic pMG22-8-1. Immunizations were carried out on […], day 14, day 28 and day 42. Serum samples were collected on day 24 and day 38 and tested for binding to GD3 positive or negative cells. Results are shown for a peptide mimic according to the present invention (pMG22-8-1; FIG. 5b) and control peptide (p763.74; FIG. 5a).
Mice were immunized with peptide pMG22-8-1 (SEQ ID NO:6) on days 0, 14, 28 and 42. Sera was collected on days 24 and 38. The sera was tested for reactivity to GD3 positive (Melur) cells compared with GD3 negative cells (LG2) by ELISA.

[2] = Induction of anti-peptide and anti-carrier antibodies in immunized mice; type: in vivo
Text: FIGS. 4a, 4b, 4c are representations of induction of the anti-peptide and anti-carrier reponses. Mice were immunized on day 0, 14, 28 and 42. Sera was collected on day 10, 24 and 38. Results are shown for mice immunized with p763.74 (FIG. 4a), pMG22-8-1 (FIG. 4b) and KLH (FIG. 4c). Preimmune sera is indicated as -∘-; reaction against the immunized peptide is indicated as -●-; and reaction against peptide not used for immunization is indicated as -Δ-.
Mice were immunized with pMG22-8-1, p763.74 peptides or KLH. Sera was tested on day 10, 24 and 38. […] In the group immunized with pMG22-8-1, the titer of antibodies reacting against the GD3 peptide mimic is observed.

[3] = biological target: anti-GD3 monoclonal antibody MG22; experiment: inhibition of mAb MG22 binding to GD2/3+ Melur melanoma cells by cyclized peptide, at 500 µM peptide

QPFPCYSNAPCQSPS (not fully specified (bridges); cysteine pairing not given here) [pMG21-15-1, GD3 peptide mimic isolated using MG21 from X15 phage library]
inhibition of binding of panning mAb MG21 to Melur melanoma cells (mAb MG21): inhibited in a specific and dose-dependent manner

MCPTDMPASLCM (disulfide 2-11 (inferred)) [pMG22-8-1, GD3 peptide mimic isolated using MG22 from LX-8 phage library]
inhibition of mAb MG22 binding to GD3+ cells after pre-incubation of the peptide with DTT (mAb MG22; 10 mM DTT (reduced, non-cyclized peptide)): abolished
inhibition of binding of MG22 to Melur cells (mAb MG22; at 500 μM peptide, GD2/3+ Melur cells, dose-dependent): up to 72%
inhibition of binding of panning mAb MG22 to Melur melanoma cells (mAb MG22; cyclized peptide, FIG. 2c): inhibited in a specific and dose-dependent manner
mice whose serum reacted selectively to GD3 positive cell line [1]: one out of eight mice
titer of non-specific antibodies reacting to p763.74 (peptide not used for immunization) ([2]; group immunized with pMG22-8-1, FIG. 4b): increase
titer of serum antibodies reacting to the immunogen ([2]; mice immunized day 0, 14, 28, 42, sera day 10, 24, 38): high titer

RCPPEYVAADCD (disulfide 2-11 (inferred)) [pMG21-8-4, GD3 peptide mimic isolated using MG21 from LX-8 phage library]
inhibition of binding of panning mAb MG21 to Melur melanoma cells (mAb MG21): inhibited in a specific and dose-dependent manner

MCPTDMPASLCM (disulfide 2-11 (inferred)) [pMG22-8-1]
% inhibition of MG22 binding to Melur cells [3]: 72%
